Experimental data published in patent US20020102533A1, “Hepatitis C protease exosite for inhibit or design” (priority 2000, published 2002).
“Also recorded” adds a separate entry of the source. Like-named read-outs stand apart in the source and are kept apart here. Where a SMILES comes first, the peptide text is derived from it. [ ]: non-standard residue; d: D form. Dip = N[C@H](C(=O)O)C(c1ccccc1)c1ccccc1; Cha = N[C@@H](CC1CCCCC1)C(=O)O

Assays:
[1] = target: T1, HCV NS3 protease, genotype 1a (Hepatitis C virus genotype 1a, UniProt P26664); experiment: biochemical; assay type: biochemical
T1 construct: NS3 protease catalytic domain (amino acids 1 to 192); MGAQH expression leader (5 aa), or alternatively the 15 aa His tag […]; made in house; host or cells: E. coli BL21 (DE3)
Protocol: (§1) Endpoint HPLC based HCV protease assay: HCV protease (5 nM) was incubated in 50 mM Tris pH 7.5, 0.1% maltoside, 5 mM DTT and appropriate amounts of glycerol, NS4A peptide, and substrate. Routine assays were 100 μl in volume containing 15% or 50% glycerol, 5.0 μM NS4A peptide and 5.0 μM substrate. Reactions were run at room temperature (˜22° C.) and quenched by the addition of 4 μl of 10% TFA before 10% of the substrate was consumed. Incubation times were 20 minutes for the ester substrate (Peptide Substrate A) and 80 minutes for the P6-P7′ amide substrate (Peptide Substrate B). […] Incubation times were 90 min. Samples, 50 μl, were injected onto an Hewlett Packard 1090 Liquid Chromatograph containing a Dynamax-60A C18 column. The column was eluted with a linear gradient from 10% acetonitrile to 45% acetonitrile in water. All solvents contained 0.1% TFA. A flow rate of 1 ml/min was used. […] The product peaks were detected by fluorescence excitation at 350 nm and emission at 500 nm.
Continuous fluorescence-based HCV protease assay: This asay was a modified version of method of Taliani (Taliani, M.; et al. Anal. Biochem. 240, 60-67, 1996) using Substrate A (Ac-D-E-D(EDANS)-E-E-Abuψ[COO]-A-S-K(DABCYL)—NH2). Assays were run in a 96-well microtiter plates using a Perkin Elmer Luminescence Spectrometer LS50B exciting at 350 nm (10 nm slit) and emitting at 500 nm (10 nm slit). In a typical assay the protease (1-4 nM) was incubated with 10 μM NS4a peptide in 50 mM Tris pH 7.0, 5.0 mM DTT, 50% glycerol, and […] for 15 min. Catalysis was initiated by the addition of Substrate A (final concentration 5.0 μM). Assays were also run under conditions where 15% glycerol, 0.1% Maltoside were substituted for 50% glycerol and 5% CHAPS. Enzymatic activity was monitored by measuring the increase in fluorescence with time using excitation wavelength of 350 nm and an emission wavelength of 500 nm. Both slit widths were 10 nm. Inhibition constants were determined from a nonlinear least squares fit of the data to the equation Vi/Vo=1/(1+[I]/Kiapp). Where Vi is the velocity measured in the presence of inhibitor (inhibitors were introduced with the NS4a peptide) and Vo is the velocity of controls. The thermodynamic Ki was determined from Kiapparent via the relationship for competitive kinetics: Ki=Kiapp/(1+[S]/Km) where [S] is the substrate concentration.
(§2) Footnote a for Table 1 references the assay condiditions: 1) Substrate A=P6-P3′, HCV protease (4.0 nM) was incubated with various concentrations of truncated analogs of Q9692 in 50 mM Tris buffer, pH 7.0, 15% glycerol, 0.1% maltoside, 5 mM DTT and 10 μM NS4A peptide in a 96-well microtiter plate at room temperature. After 15 minutes catalysis was initiated by the addition of Ac-D-E-D(EDANS)-E-E-Abuψ[COO]-A-S-K(DABCYL)—NH2 (final concentration 5.0 μM in a total reaction volume of 200 μl). Enzymatic activity was monitored by measuring the increase in fluorescence with time on a Perkin Elmer LS50B luminescence spectrometer (excitation 350 nm, emission 500 nm, both slits 10 nm). […] Assays were 100 μl in volume, reactions were run at room temperature (˜22 C) for 80 minutes (<10% of the substrate was consumed). The addition of 4 μl of 10% TFA quenched the reactions. Quantitation of hydrolysis products was determined by measuring fluorescent peak areas following HPLC. Products were detected by excitation at 350 nm and measuring emission at 500 nm. Aliquots (50 μl) of quenched enzymatic reactions were injected on an Hewlett Packard 1090 HPLC equipped with a ¼ inch Dynamex 60A C18 column. A linear gradient from 10% acetonitrile:H2O to 45% acetonitrile:H2O was run over a period of 15 min at a flow rate of 1.0 ml/min. All solvents contained 0.1% TFA.

HCV protease (NS3) = target: T2, HCV protease (NS3) (Hepatitis C virus genotype 1a, UniProt P26664); assay type: binding
T2 construct: NS3 protease catalytic domain (amino acids 1 to 192); MGAQH expression leader (5 aa), or alternatively the 15 aa His tag MRGSHHHHHHMGAQH; made in house; host or cells: E. coli BL21 (DE3)
Protocol: Intrinsic fluorescence studies: Assays were conducted in 0.5 ml fluorescent cuvettes (0.4 ml total volume). […] Fluorescence spectra were obtained by exiting at 280 nm (10 nm slit) and scanning the emission profile from 300 to 400 nm (10 nm slit) at 1 nm s^−1.
Fluorescence spectrum of HCV protease (0.45 μM) in 50 mM Tris buffer, pH 7.0, containing 15% glycerol, and 0.10% maltoside were measured over a range of 300-400 nm using an excitation wavelength of 280 nm. Both excitation and emission slit widths were 10 nm and the scan rate was 1.0 nm sec^−1.

[2] = target: T1, HCV NS3 protease, genotype 1a; assay type: biochemical
Protocol: as §1, §2
Comparison of the effects of Q9692 on the hydrolysis of a P6-P3′ ester substrate (FIG. 2A) and a P6-P7′ substrate (FIG. 2B) and P6-P3′ amide substrate (FIG. 2C) were determined. For substrates A and B1 Concentrations of Q9692 are 0 (circles), 1 μM (squares), 2 μM (diamonds) and 4 μM (triangles). Assay conditions: HCV protease (5 nM) was incubated in 50 mM Tris buffer at pH 7.0, 15% glycerol, 0.1% maltoside, 5 mM DTT, 10 μM NS4A peptide, and specified concentration of substrate. Assays were 100 μl in volume and reactions were run at room temperature (22 C) and quenched by the addition of 4 μl of 10% TFA before 10% of the substrate was consumed. Incubation times were 20 minutes for the ester substrate and 80 minutes for the amide substrate. Hydrolysis products were quantitated by measuring fluorescent peak areas following HPLC and detection by excitation at 350 nm and measuring emission at 500 nm. Aliquots (50 μl) of quenched enzymatic reactions were injected on an Hewlett Packard 1090 HPLC equipped with a ¼ inch Dynamex 60A C18 column.

[3] = P6-P3′ ester substrate, 2 μM Q9692

## CC(=O)N[C@@H](CC(=O)O)C(=O)N[C@@H](CCC(=O)O)C(=O)N[C@H](C(=O)N[C@@H](CCC(=O)O)C(=O)N[C@@H](CC1CCCCC1)C(=O)N[C@@H](CS)C(=O)O)C(c1ccccc1)c1ccccc1 [Q9692, Ac-Asp-Glu-Dpa-Glu-Cha-Cys—OH] (Ac-DE[Dip]E[Cha]C-OH)
[1]; 5 μM substrate spanning P6-P3′
  Dixon plots of 1/V versus Q9717 concentration: intersecting lines
[1]; P6-P3′ ester substrate
  concentration of maximum stimulation: 4 µM
  concentrations at which inhibition was observed: greater than 10.0 μM
[1]; [3]
  kcat of substrate: relatively unchanged
  reduction in Km of substrate: 5 fold
[1]; P6-P3′ ester substrate, maximum at 4 μM Q9692
  activation of the enzyme (maximum stimulation): approximately 5 fold
[1]; substrate A
  (S = P6-P3′) Inhibition(+) / Activation (−): −
HCV protease (NS3); 5.0 μM added after 12.5 μM NS4a
  further increase in intrinsic fluorescence: 70%
HCV protease (NS3); in the absence of NS4a
  effect on fluorescence spectrum: little effect
HCV protease (NS3); in the presence of NS4a
  effect on intrinsic fluorescence: near doubling of intrinsic fluorescence; also recorded: nearly doubles the intrinsic fluorescence; also recorded: large increase in fluorescence
[2]; 5 μM substrate spanning P6-P7′
  Dixon plots of 1/V versus Q9717 concentration: intersecting lines
[2]; P6-P7′ substrate, double reciprocal plots
  mode of action: competitive inhibitor
[2]; substrate B
  (S = P6-P7′) Inhibition (+) / Activation (−): +
